Data set [1] has as its system central RXFP1 activation (water drinking). Nature of the data set: Drinking (dipsogenic) response after icv infusion. The following applies: adult male C57B/6J mice; single 4 μg dose icv in 4 μl aCSF; n = 3–4; observed 30 min. It is filed as in vivo. The source says:
(§1) Adult male C57B/6J mice (10-weeks old) were deeply anesthetized by inhalation of 4% isoflurane and anaesthesia was maintained with 2% isoflurane administered at 0.2 l/min through a nasal cone. Mice were secured in a stereotaxic frame and an incision made to expose the skull, which was cleaned with 6% hydrogen peroxide. Two 1 mm-diameter holes were drilled in the skull on either side of the sagittal midline, 3 mm posterior and 3 mm lateral to bregma, to allow small screws (3 mm long) to be secured in order to anchor the guide cannula in place. A third hole of 1 mm in diameter was drilled through the skull to allow implantation of a stainless-steel guide cannula (11 mm long, 24 gauge) just above the lateral ventricle at the coordinates relative to bregma: anterior-posterior −0.46 mm; medial-lateral −0.8 mm; dorsal-ventral −1.8 mm. The guide cannula and screws were fixed in place by application of self-curing acrylic dental cement (Vertex-Dental, the Netherlands).
After 5–10 days recovery post-surgery, mice were gently restrained and an injector was inserted through the guide cannula which protruded 0.5 mm into the lateral ventricle. A single 4 μg dose of each peptide (n = 3–4) was delivered in 4 μ l of artificial CSF (aCSF; 147 mM NaCl, 4 mM KCl, 0.85 mM MgCl2, and 2.3 mM CaCl2), over 1 min via a 10 μ l syringe (0.46 mm diameter) mounted on an infusion pump connected to the injector via polyethylene tubing. Following infusion, the injector was left in place for a further 15 s to prevent backflow of the infused peptide up the guide cannula.
Following peptide infusion, mice were placed back in their clear-walled home cages for 30 min with access to water (and food) and filmed through the side of the cage for subsequent assessment of behavior. After 30 min, mice were killed by isoflurane inhalation overdose, decapitated, and brains were removed and “post-fixed” by immersion in chilled 4% PFA solution. […] Sections were viewed and images collected using a confocal laser scanning microscope, using laser light at λ of 633 nm, while light between λ of 650–750 nm was detected.

In another data set the target is T1, RXFP2 (Homo sapiens, UniProt Q8WXD0).
T1 construct: expressed in transfected cells; host or cells: HEK-293T (co-transfected with pCRE β-galactosidase reporter)
Nature of the data set: cAMP reporter gene assay (pCRE β-galactosidase). The following applies: cell-based assay, HEK-293T RXFP2. The procedure:
The ability of the Cy5.5-labeled insulin/relaxin family peptide analogs to stimulate cAMP production was evaluated using a cAMP reporter gene assay as described (Scott et al., [2006]). HEK-293T cells co-transfected with either RXFP1 or RXFP2 and a pCRE β-galactosidase reporter plasmid were plated in 96-well plates (Chen et al., [1995]). After 24 h, the co-transfected cells were incubated with increasing concentrations of relaxin analogs in parallel to 10 nM of H2 relaxin or INSL3 for RXFP1- or RXFP2- transfected cells, respectively. The amount of cAMP-driven β-galactosidase expression in each well was assessed with a colormetric assay measuring absorbance at 570 nm on a microplate spectrophotometer. Ligand-induced cAMP stimulation was expressed as a percentage of maximal response of H2 relaxin or INSL3 for RXFP1 and RXFP2 cells, respectively. Each data point was measured in triplicate and each experiment conducted independently at least three separate times. Statistical differences in pEC50 values were analyzed using One-Way ANOVA coupled to the Newman Keul's multiple comparison test for multiple group comparisons in GraphPad Prism 4.

The test system of the next data set is brain tissue. Nature of the data set: Brain distribution of Cy5.5 fluorescence after icv infusion. It counts as in vivo. Conditions: mice, 30 min after icv injection of 4 μg.
Excerpt: as §1, with “Netherlands). […]” for “Netherlands).”
Following peptide infusion, mice were placed back in their clear-walled home cages for 30 min with access to water (and food) and filmed through the side of the cage for subsequent assessment of behavior. […] Sections were viewed and images collected using a confocal laser scanning microscope, using laser light at λ of 633 nm, while light between λ of 650–750 nm was detected.

The source of these data is paper PMC3982560, “Synthesis of fluorescent analogs of relaxin family peptides and their preliminary in vitro and in vivo characterization” (Frontiers in Chemistry, 2013).

T1 sequence (Q8WXD0 whole entry, species assumed): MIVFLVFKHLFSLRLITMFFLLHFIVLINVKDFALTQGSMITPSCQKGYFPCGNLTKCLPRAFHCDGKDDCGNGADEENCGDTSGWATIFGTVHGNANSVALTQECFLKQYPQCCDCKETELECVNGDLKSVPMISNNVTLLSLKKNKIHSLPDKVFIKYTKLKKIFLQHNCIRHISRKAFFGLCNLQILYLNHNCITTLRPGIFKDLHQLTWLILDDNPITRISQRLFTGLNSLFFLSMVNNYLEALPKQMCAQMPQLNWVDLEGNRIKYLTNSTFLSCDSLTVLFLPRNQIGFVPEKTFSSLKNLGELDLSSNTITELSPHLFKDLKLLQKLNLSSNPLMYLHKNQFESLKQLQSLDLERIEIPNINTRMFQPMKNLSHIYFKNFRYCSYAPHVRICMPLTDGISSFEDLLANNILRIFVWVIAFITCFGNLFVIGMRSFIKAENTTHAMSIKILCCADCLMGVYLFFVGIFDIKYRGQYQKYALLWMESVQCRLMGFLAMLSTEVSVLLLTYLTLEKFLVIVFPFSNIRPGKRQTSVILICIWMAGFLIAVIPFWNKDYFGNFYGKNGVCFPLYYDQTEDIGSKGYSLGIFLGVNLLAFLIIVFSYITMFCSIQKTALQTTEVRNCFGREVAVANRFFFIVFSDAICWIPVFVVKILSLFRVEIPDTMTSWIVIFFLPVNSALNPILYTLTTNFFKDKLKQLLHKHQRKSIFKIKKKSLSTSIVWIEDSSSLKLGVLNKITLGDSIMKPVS

As for `CCCC[N+]1=C(C=CC=CC=C2N(CCCCCC(=O)NCCCn3cc(C[C@H](N)C(=O)N4CCC[C@H]4C(=O)N[C@H](C(=O)N4CCC[C@H]4C(=O)N[C@@H](CCC(=O)O)C(=O)N[C@@H](CCSC)C(=O)N[C@@H](CCCNC(=N)N)C(=O)N[C@@H](CCC(=O)O)C(=O)N[C@@H](CCCCN)C(=O)N[C@@H](CC(C)C)C(=O)N[C@H]4CSSC[C@@H]5NC(=O)[C@@H](NC(=O)[C@H](Cc6ccc(O)cc6)NC(=O)[C@H](CCCNC(=N)N)NC(=O)[C@H](C)NC(=O)[C@@H]6CCCN6C(=O)[C@H](CC(N)=O)NC(=O)[C@@H](NC(=O)[C@H](C)NC(=O)[C@H](C)NC(=O)[C@H](C)N)[C@@H](C)O)CSSC[C@H](NC(=O)CNC(=O)[C@H](CO)NC(=O)[C@H](CC(C)C)NC5=O)C(=O)N[C@@H]([C@@H](C)O)C(=O)N[C@@H](CCC(N)=O)C(=O)N[C@@H](CCC(N)=O)C(=O)N[C@@H](CC(=O)O)C(=O)N[C@@H](CC(C)C)C(=O)N[C@@H](CC(C)C)C(=O)N[C@@H]([C@@H](C)O)C(=O)N[C@@H](CC(C)C)C(=O)N[C@H](C(=O)N5CCC[C@H]5C(=O)N[C@@H](Cc5ccc(O)cc5)C(=O)O)CSSC[C@@H](C(=O)NCC(=O)NCC(=O)N5CCC[C@H]5C(=O)N[C@@H](CCCNC(=N)N)C(=O)N[C@@H](Cc5c[nH]c6ccccc56)C(=O)N[C@@H](CO)C(=O)N[C@H](C(=O)N[C@@H](CCC(=O)O)C(=O)N[C@@H](C)C(=O)O)[C@@H](C)O)NC(=O)[C@H](C(C)C)NC(=O)[C@H](CCCNC(=N)N)NC(=O)[C@H](C(C)C)NC(=O)[C@H](CC(C)C)NC(=O)[C@H](C)NC(=O)[C@H](CCCNC(=N)N)NC(=O)[C@H](C(C)C)NC(=O)[C@H](Cc5ccccc5)NC(=O)[C@H](Cc5c[nH]cn5)NC(=O)[C@H](Cc5c[nH]cn5)NC(=O)CNC4=O)[C@@H](C)O)nn3)c3ccc4ccccc4c3C2(C)C)C(C)(C)c2c1ccc1ccccc21` [Cy5.5-INSL3], the “Drinking behavior after icv infusion (in words)” value (shortened to “Drinking behavior”) in data set [1] is listed as “did not initiate a drinking response”.

Turning to `CCCC[N+]1=C(C=CC=CC=C2N(CCCCCC(=O)NCCCn3cc(C[C@H](N)C(=O)N[C@@H](CC(=O)O)C(=O)N[C@@H](CO)C(=O)N[C@@H](Cc4c[nH]c5ccccc45)C(=O)N[C@@H](CCSC)C(=O)N[C@@H](CCC(=O)O)C(=O)N[C@@H](CCC(=O)O)C(=O)N[C@H](C(=O)N[C@H](C(=O)N[C@@H](CCCCN)C(=O)N[C@@H](CC(C)C)C(=O)N[C@H]4CSSC[C@@H]5NC(=O)[C@@H](NC(=O)[C@H](CCCCN)NC(=O)[C@H](CC(N)=O)NC(=O)[C@H](C)NC(=O)[C@H](CC(C)C)NC(=O)[C@H](C)NC(=O)[C@@H](N)CO)CSSC[C@H](NC(=O)CNC(=O)[C@H](C(C)C)NC(=O)[C@H](Cc6c[nH]cn6)NC5=O)C(=O)N[C@@H]([C@@H](C)O)C(=O)N[C@@H](CCCCN)C(=O)N[C@@H](CCCNC(=N)N)C(=O)N[C@@H](CO)C(=O)N[C@@H](CC(C)C)C(=O)N[C@@H](C)C(=O)N[C@@H](CCCNC(=N)N)C(=O)N[C@@H](C)C(=O)N[C@H](C(=O)O)CSSC[C@@H](C(=O)NCC(=O)N[C@@H](CCSC)C(=O)N[C@@H](CO)C(=O)N[C@H](C(=O)N[C@@H](Cc5c[nH]c6ccccc56)C(=O)N[C@@H](CO)C(=O)O)[C@@H](C)O)NC(=O)[C@H]([C@@H](C)CC)NC(=O)[C@H](C)NC(=O)[C@H]([C@@H](C)CC)NC(=O)[C@H](CCC(N)=O)NC(=O)[C@H](C)NC(=O)[C@H](CCCNC(=N)N)NC(=O)[C@H](C(C)C)NC(=O)[C@H](CC(C)C)NC(=O)[C@H](CCC(=O)O)NC(=O)[C@H](CCCNC(=N)N)NC(=O)CNC4=O)[C@@H](C)CC)C(C)C)nn3)c3ccc4ccccc4c3C2(C)C)C(C)(C)c2c1ccc1ccccc21` [Cy5.5-H2:A(4-24)(F23A)], the “Drinking behavior” value in data set [1] was “stimulated a similar increase in drinking behavior”.

With `CCCC[N+]1=C(C=CC=CC=C2N(CCCCCC(=O)NCCCn3cc(C[C@H](N)C(=O)N[C@@H](CC(=O)O)C(=O)N[C@@H](CO)C(=O)N[C@@H](Cc4c[nH]c5ccccc45)C(=O)N[C@@H](CCSC)C(=O)N[C@@H](CCC(=O)O)C(=O)N[C@@H](CCC(=O)O)C(=O)N[C@H](C(=O)N[C@H](C(=O)N[C@@H](CCCCN)C(=O)N[C@@H](CC(C)C)C(=O)N[C@H]4CSSC[C@@H]5NC(=O)[C@@H](NC(=O)[C@H](CCCCN)NC(=O)[C@H](CC(N)=O)NC(=O)[C@H](C)NC(=O)[C@H](CC(C)C)NC(=O)[C@H](C)NC(=O)[C@H](CO)NC(=O)[C@H](Cc6ccc(O)cc6)NC(=O)[C@H](CC(C)C)NC(=O)[C@@H]6CCC(=O)N6)CSSC[C@H](NC(=O)CNC(=O)[C@H](C(C)C)NC(=O)[C@H](Cc6c[nH]cn6)NC5=O)C(=O)N[C@@H]([C@@H](C)O)C(=O)N[C@@H](CCCCN)C(=O)N[C@@H](CCCNC(=N)N)C(=O)N[C@@H](CO)C(=O)N[C@@H](CC(C)C)C(=O)N[C@@H](C)C(=O)N[C@@H](CCCNC(=N)N)C(=O)N[C@@H](Cc5ccccc5)C(=O)N[C@H](C(=O)O)CSSC[C@@H](C(=O)NCC(=O)N[C@@H](CCSC)C(=O)N[C@@H](CO)C(=O)N[C@H](C(=O)N[C@@H](Cc5c[nH]c6ccccc56)C(=O)N[C@@H](CO)C(=O)O)[C@@H](C)O)NC(=O)[C@H]([C@@H](C)CC)NC(=O)[C@H](C)NC(=O)[C@H]([C@@H](C)CC)NC(=O)[C@H](CCC(N)=O)NC(=O)[C@H](C)NC(=O)[C@H](CCCNC(=N)N)NC(=O)[C@H](C(C)C)NC(=O)[C@H](CC(C)C)NC(=O)[C@H](CCC(=O)O)NC(=O)[C@H](CCCNC(=N)N)NC(=O)CNC4=O)[C@@H](C)CC)C(C)C)nn3)c3ccc4ccccc4c3C2(C)C)C(C)(C)c2c1ccc1ccccc21` [Cy5.5-H2 relaxin], the “Drinking behavior” value in data set [1] is listed as “stimulated a similar increase in drinking behavior”. The “Activation of RXFP2 (in words)” value at RXFP2 is “activated”. The “Distance from the ventricle wall beyond which little or no Cy5.5 fluorescence was seen” value with brain tissue (confocal microscopy) is reported as more than 300 μm. In addition, in the data set on brain tissue (confocal microscopy of 40 μm coronal sections), the “Distribution of Cy5.5 fluorescence in brain (in words)” value was “high levels of Cy5.5 were present within the ventricle wall and brain tissue proximal to the major cerebral ventricles”.
